Experimental data as given in patent US6313333A, “Multinuclear cationic platinum complexes with antitumor activity” (Setanta Therapeutics, Inc., priority 1997, dated 2001).

test system: murine leukemia L1210; settings: l1210 cells

Going from “t,t-[PtCl(NH3)2 H2 N--(CH2)6 --NH2 PtCl(NH3)2 ]^+2.2NO3^-” to “t,t,t,t,t-[PtCl(NH3)2 H2 N--(CH2)6 --NH2 Pt--(NH3)2 H2 N--(CH2)6 --NH2 Pt(NH3)2 H2 N--(CH2)6 --NH2 Pt(NH3)2 H2 N--(CH2)6 --NH2 PtCl(NH3)2 ]^+8.8Cl^-”, the “IC50, "in vitro" cytotoxic activity against murine leukemia L1210” value falls from 2.3 µg/mL to 0.3 µg/mL (7.7-fold).

For N.N.N.N.N.N.NCCCCCCN.NCCCCCCN.O=[N+]([O-])[O-].O=[N+]([O-])[O-].O=[N+]([O-])[O-].O=[N+]([O-])[O-].[Cl-].[Cl-].[Pt+2].[Pt+2].[Pt+2] [t,t,t-[PtCl(NH3)2 H2 N(CH2)6 NH2 Pt(NH3)2 H2 N(CH2)6 NH2 PtCl(NH3)2]^+4.4NO3^-], the “IC50, "in vitro" cytotoxic activity against murine leukemia L1210” value was 0.38 µg/mL.
